Laboratory results reported in patent US20060009431A1, “Nitrosated and nitrosylated compounds, compositions and methods use” (NitroMed, Inc., priority 2003, published 2006).

tested on: not given; test: not given; settings: not given

melting point	Structure (SMILES)
140 to 143 °C	C[C@]12CC[C@@H]3c4ccc(OC(=O)c5ccccc5)cc4CC[C@H]3[C@@H]1CC[C@@H]2OC(=O)CCC(=O)OCCC1(S)C2CC3CC(C2)CC1C3 (some centres unmarked)
146 to 149 °C	C[C@]12CC[C@@H]3c4ccc(OC(=O)COCC(=O)O[C@H]5CO[C@H]6[C@@H]5OC[C@H]6O[N+](=O)[O-])cc4CC[C@H]3[C@@H]1CC[C@@H]2O
50 to 52 °C	C[C@]12CC[C@@H]3c4ccc(OC(=O)CCCC(=O)NCC5(SN=O)CCCCC5)cc4CC[C@H]3[C@@H]1CC[C@@H]2O
143 to 145 °C	C[C@]12CC[C@@H]3c4ccc(O)cc4/C(=N/OCC(=O)N4CCC(CO[N+](=O)[O-])CC4)C[C@H]3[C@@H]1CC[C@@H]2O
140 °C (dec.)	C[C@]12CC[C@@H]3c4ccc(O)cc4/C(=N/OCC(=O)NCCO[N+](=O)[O-])C[C@H]3[C@@H]1CC[C@@H]2O
102 to 105 °C	C[C@]12CC[C@@H]3c4ccc(O)cc4/C(=N/OCC(=O)N4CCC(CCO[N+](=O)[O-])CC4)C[C@H]3[C@@H]1CC[C@@H]2O
75 to 77 °C	CC(C)(SN=O)C1COC(=O)N1CCOC(=O)CO/N=C1\C[C@@H]2[C@H](CC[C@]3(C)[C@@H](O)CC[C@@H]23)c2ccc(O)cc21 (some centres unmarked)
40 °C	CC(C)(SN=O)C1COC(=O)N1CCOC(=O)COc1ccc2c(c1)CC[C@@H]1[C@@H]2CC[C@]2(C)[C@@H](O)CC[C@@H]12 (some centres unmarked)
135 to 137 °C	COc1ccc(/C=C/C(=O)Nc2ccccc2C(=O)OCC(=O)NCC(C)(C)SN=O)cc1OC [Example 1, (N-(2-Methyl-2-(nitrosothio)propyl)carbamoyl)methyl 2-((2E)-3-(3,4-dimethoxyphenyl)prop-2-enoylamino)benzoate]
63 to 65 °C	COc1ccc(C=C2c3ccccc3C(=O)c3ccccc32)cc1OCC(=O)N1CCC(CO[N+](=O)[O-])CC1 [Example 53, 2-(2-Methoxy-5-((10-oxo(9-anthrylidene))methyl)phenoxy)-1-(4-((nitrooxy)methyl)piperidyl)ethan-1-one]

Structure (SMILES)	melting point
CN(CCO[N+](=O)[O-])C(=O)CO/N=C1\C[C@@H]2[C@H](CC[C@]3(C)[C@@H](O)CC[C@@H]23)c2ccc(O)cc21	125 to 127 °C (dec.)
C[C@]12CC[C@@H]3c4ccc(OC(=O)CCC(=O)OCCC5(S)C6CC7CC(C6)CC5C7)cc4CC[C@H]3[C@@H]1CC[C@@H]2O (stereo partly drawn) [Example 30, (1S,11S,14S,15S,10R)-14-Hydroxy-15-methyltetracyclo(8.7.0.0<2,7>0.0<11,15>)heptadeca-2,4,6-trien-5-yl 2-(2-sulfanyladamantan-2-yl)ethyl butane-1,4-dioate]	133 to 136 °C
C[C@]12CC[C@@H]3c4ccc(OC(=O)CCC(=O)O[C@H]5CO[C@H]6[C@@H]5OC[C@H]6O[N+](=O)[O-])cc4CC[C@H]3[C@@H]1CC[C@@H]2O [Example 32b, (1S,11S,14S,15S,10R)-14-Hydroxy-15-methyltetracyclo(8.7.0.0<2,7>0.0<11,15>)heptadeca-2,4,6-trien-5-yl(1S,2S,5S,6R)-6-(nitrooxy)-4,8-dioxabicyclo(3.3.0)oct-2-yl butane-1,4-dioate]	163 to 165 °C
C[C@]12CC[C@@H]3c4ccc(OCC(=O)OCCC5(SN=O)C6CC7CC(C6)CC5C7)cc4CC[C@H]3[C@@H]1CC[C@@H]2O (stereo partly drawn) [Example 36b, 2-(2-(Nitrosothio)adamantan-2-yl)ethyl 2-((1S,11S,14S,15S,10R)-14-hydroxy-15-methyltetracyclo(8.7.0.0<2,7>0.0<11,15>)heptadeca-2,4,6-trien-5-yloxy)acetate]	48 to 50 °C
C[C@]12CC[C@@H]3c4ccc(O)cc4/C(=N/OCC(=O)OCCC4(SN=O)C5CC6CC(C5)CC4C6)C[C@H]3[C@@H]1CC[C@@H]2O (stereo partly drawn) [Example 37, 2-(2-(Nitrosothio)adamantan-2-yl)ethyl 2-(((1S,11S,14S,15S,10R)-5,14-dihydroxy-15-methyltetracyclo(8.7.0.0<2,7>0.0<11,15>)heptadeca-2,4,6-trien-8-ylidene)azamethoxy)acetate]	75 to 80 °C

tested on: human coronary artery smooth muscle cells (CASMC); test: Vascular smooth muscle cell (SMC) antiproliferation assay; format: cell-based; settings: Homo sapiens, viable cell count (Trypan Blue exclusion) ~68 hours after compound addition, n=4, read-out: IC 50 for the inhibition of proliferation of vascular smooth muscle cells, Nitrosated and/or Nitrosylated Compound
Procedure: Suppression of Proliferation of Human Coronary Artery Smooth Muscle Cells (CASMC)
Vascular Smooth Muscle Cell (SMC) Antiproliferation Assay
The cells used in this assay were human coronary artery smooth muscle cells (CASMC) supplied by Clonetics Corp. (San Diego, Calif.). They were maintained in SmGM-2 growth medium (Clonetics Corp.), which consisted of modified MCDB 131 medium supplemented with 5% (v/v) fetal bovine serum (FBS), 0.5 ng/mL human recombinant epidermal growth factor (EGF), 2 ng/mL human recombinant fibroblast growth factor (FGF), 5 μg/mL bovine insulin, 50 μg/mL gentamicin sulfate, and 50 ng/mL amphotericin B under humidified 95% air-5% CO2 at 37° C. Cells were used for experiments up to about 17 cumulative population doublings (i.e., passage 9); at this age they still stained positive for smooth muscle actin, a protein marker for smooth muscle cells.
For the SMC antiproliferation assay, the cells were seeded at 3×10^4 viable cells in 2 mL of SmGM-2 medium per well of a Corning 24 tissue culture well plate (Corning, N.Y.). Stock solutions of the test compounds were prepared just prior to addition to the cells by dissolving in DMSO at a concentration of 1000 times the highest concentration to be assayed. This stock solution was diluted, as required, with DMSO to lower concentrations. On the same day the cells were seeded, but after they had attached and spread out (about 3 hours), each test compound in varying concentrations (2 μL of the diluted stock solutions) was added to four replicate wells (n=4) for each concentration. Control cultures received 2 μL of DMSO per well (n=4). On the following morning, the cultures were examined microscopically and their condition recorded. On the third day after test compound addition (˜68 hours), the cultures were examined microscopically again and the viable cells counted with an hemacytometer following trypsinization with 0.25% trypsin-1 mM EDTA. Trypan Blue dye exclusion was used to discriminate between viable and dead cells. The results were usually presented as % of the control viable cell count (mean±SEM) and were used to determine the IC50 for the inhibition of proliferation of vascular smooth muscle cells.

Structure (SMILES)	IC50 [µM]
C[C@]12CC[C@@H]3c4ccc(OC(=O)c5ccccc5)cc4CC[C@H]3[C@@H]1CC[C@@H]2OC(=O)CCC(=O)O[C@H]1CO[C@H]2[C@@H]1OC[C@H]2O[N+](=O)[O-] [Example 15, (1S,11S,14S,15S,10R)-15-Methyl-5-phenylcarbonyloxytetracyclo(8.7.0.0<2,7>0.0<11,15>)heptadeca-2,4,6-trien-14-yl(1S,2S,5S,6R)-6-(nitrooxy)-4,8-dioxabicyclo(3.3.0)oct-2-yl butane-1,4-dioate]	> 80
C[C@]12CC[C@@H]3c4ccc(OC(=O)CC5(SN=O)C6CC7CC(C6)CC5C7)cc4CC[C@H]3[C@@H]1CC[C@@H]2O (stereo partly drawn) [Example 18, (1S,11S,14S,15S,10R)-14-hydroxy-15-methyltetracyclo(8.7.0.0<2,7>0.0<11,15>)heptadeca-2,4,6-trien-5-yl 2-(2-(nitrosothio)adamantan-2-yl)acetate]	9
C[C@]12CC[C@@H]3c4ccc(OC(=O)CCC(=O)OCCC5(SN=O)C6CC7CC(C6)CC5C7)cc4CC[C@H]3[C@@H]1CC[C@@H]2O (stereo partly drawn) [Example 25, (1S,11S,14S,15S,10R)-14-Hydroxy-15-methyltetracyclo(8.7.0.0<2,7>0.0<11,15>)heptadeca-2,4,6-trien-5-yl 2-(2-(nitrosothio)adamantan-2-yl)ethyl butane-1,4-dioate]	4
CC1(C)CCC(CCOC(=O)CCC(=O)Oc2ccc3c(c2)CC[C@@H]2[C@@H]3CC[C@]3(C)[C@@H](O)CC[C@@H]23)(SN=O)CC1 [Example 28i, (1S,11S,14S,15S,10R)-14-Hydroxy-15-methyltetracyclo(8.7.0.0<2,7>0.0<11,15>)heptadeca-2,4,6-trien-5-yl 2-(4,4-dimethyl-1-(nitrosothio)cyclohexyl)ethyl butane-1,4-dioate]	13
C[C@]12CC[C@@H]3c4ccc(OC(=O)CCC(=O)O[C@H]5CO[C@H]6[C@@H]5OC[C@H]6O[N+](=O)[O-])cc4CC[C@H]3[C@@H]1CC[C@@H]2O [Example 32b, (1S,11S,14S,15S,10R)-14-Hydroxy-15-methyltetracyclo(8.7.0.0<2,7>0.0<11,15>)heptadeca-2,4,6-trien-5-yl(1S,2S,5S,6R)-6-(nitrooxy)-4,8-dioxabicyclo(3.3.0)oct-2-yl butane-1,4-dioate]	8
C[C@]12CC[C@@H]3c4ccc(OCC(=O)OCCC5(SN=O)C6CC7CC(C6)CC5C7)cc4CC[C@H]3[C@@H]1CC[C@@H]2O (stereo partly drawn) [Example 36b, 2-(2-(Nitrosothio)adamantan-2-yl)ethyl 2-((1S,11S,14S,15S,10R)-14-hydroxy-15-methyltetracyclo(8.7.0.0<2,7>0.0<11,15>)heptadeca-2,4,6-trien-5-yloxy)acetate]	5
C[C@]12CC[C@@H]3c4ccc(O)cc4/C(=N/OCC(=O)OCCC4(SN=O)C5CC6CC(C5)CC4C6)C[C@H]3[C@@H]1CC[C@@H]2O (stereo partly drawn) [Example 37, 2-(2-(Nitrosothio)adamantan-2-yl)ethyl 2-(((1S,11S,14S,15S,10R)-5,14-dihydroxy-15-methyltetracyclo(8.7.0.0<2,7>0.0<11,15>)heptadeca-2,4,6-trien-8-ylidene)azamethoxy)acetate]	1.4 to 2

same assay, conditions: viable cell count (Trypan Blue exclusion) ~68 hours after compound addition, n=4

Structure (SMILES)	IC 50 for the inhibition of proliferation of vascular smooth muscle cells, Nitrosated and/or Nitrosylated Compound	IC 50 for the inhibition of proliferation of vascular smooth muscle cells, Non-nitrosated and/or Non-nitrosylated Compound
CN(CCO[N+](=O)[O-])C(=O)CO/N=C1\C[C@@H]2[C@H](CC[C@]3(C)[C@@H](O)CC[C@@H]23)c2ccc(O)cc21 [35 b]	Non-inhibitory	–
C[C@]12CC[C@@H]3c4ccc(OC(=O)CC5(S)C6CC7CC(C6)CC5C7)cc4CC[C@H]3[C@@H]1CC[C@@H]2OC(=O)C(F)(F)F (stereo partly drawn) [Example 17b, (1S,11S,14S,15S,10R)-15-methyl-5-(2-(2-sulfanyladamantan-2-yl)acetyloxy)tetracyclo(8.7.0.0<2,7>0.0<11,15>)heptadeca-2,4,6-trien-14-yl 2,2,2-trifluoroacetate]	–	cytostatic
C[C@]12CC[C@@H]3c4ccc(OC(=O)CC5(SN=O)C6CC7CC(C6)CC5C7)cc4CC[C@H]3[C@@H]1CC[C@@H]2OC(=O)C(F)(F)F (stereo partly drawn) [Example 17c, (1S,11S,14S,15S,10R)-15-Methyl-5-(2-(2-(nitrosothio)adamantan-2-yl)acetyloxy)tetracyclo(8.7.0.0<2,7>0.0<11,15>)heptadeca-2,4,6-trien-14-yl 2,2,2-trifluoroacetate]	Non-inhibitory	–

same assay, conditions: viable cell count (Trypan Blue exclusion) ~68 hours after compound addition, n=4, read-out: IC 50 for the inhibition of proliferation of vascular smooth muscle cells, Non-nitrosated and/or Non-nitrosylated Compound

Structure (SMILES)	IC50 [µM]
CC1(C)CCC(S)(CCOC(=O)CCC(=O)Oc2ccc3c(c2)CC[C@@H]2[C@@H]3CC[C@]3(C)[C@@H](O)CC[C@@H]23)CC1 [Example 28h, (1S,11S,14S,15S,10R)-14-hydroxy-15-methyltetracyclo(8.7.0.0<2,7>0.0<11,15>)heptadeca-2,4,6-trien-5-yl 2-(4,4-dimethyl-1-sulfanylcyclohexyl)ethyl butane-1,4-dioate]	14
C[C@]12CC[C@@H]3c4ccc(OC(=O)CCC(=O)OCCC5(S)C6CC7CC(C6)CC5C7)cc4CC[C@H]3[C@@H]1CC[C@@H]2O (stereo partly drawn) [Example 30, (1S,11S,14S,15S,10R)-14-Hydroxy-15-methyltetracyclo(8.7.0.0<2,7>0.0<11,15>)heptadeca-2,4,6-trien-5-yl 2-(2-sulfanyladamantan-2-yl)ethyl butane-1,4-dioate]	4
C[C@]12CC[C@@H]3c4ccc(O)cc4C(=NOCC(=O)O)C[C@H]3[C@@H]1CC[C@@H]2O [Example 35a, 2-(((1S,11S,14S,15S,10R)-5,14-dihydroxy-15-methyltetracyclo(8.7.0.0<2,7>0.0<11-15>)heptadeca-2,4,6-trien-8-ylidene)azamethoxy)acetic acid, reference compound]	> 80
C[C@]12CC[C@@H]3c4ccc(OC(=O)CC5(S)C6CC7CC(C6)CC5C7)cc4CC[C@H]3[C@@H]1CC[C@@H]2O (stereo partly drawn) [Example 49, (1S,11S,14S,15S,10R)-14-hydroxy-15-methyltetracyclo(8.7.0.0<2,7>0.0<11,15>)heptadeca-2,4,6-trien-5-yl 2-(2-sulfanyladamantan-2-yl)acetate]	4
